Results reported in the supplement of paper PMC9663587.

Key:
Everolimus = compound: CO[C@H]1C[C@@H]2CC[C@@H](C)[C@@](O)(O2)C(=O)C(=O)N2CCCC[C@H]2C(=O)O[C@H]([C@H](C)C[C@@H]2CC[C@@H](OCCO)[C@H](OC)C2)CC(=O)[C@H](C)/C=C(\C)[C@@H](O)[C@@H](OC)C(=O)[C@H](C)C[C@H](C)/C=C/C=C/C=C/1C [Everolimus]; assay: GR value, 72 h; higher = faster growth (1 = untreated, <0 = killing);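 note: breast cancer and non-malignant breast epithelial lines, nine half-log doses, viable cells counted by Hoechst and LIVE/DEAD dye imaging versus time-zero plates and DMSO controls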
AZD7762 = compound: NC(=O)Nc1cc(-c2cccc(F)c2)sc1C(=O)N[C@H]1CCCNC1 [AZD7762]; assay: as above
BVD523 = compound: CC(C)Nc1cc(-c2c[nH]c(C(=O)N[C@H](CO)c3cccc(Cl)c3)c2)c(Cl)cn1 [BVD523]; assay: as above
Torin2 = compound: C1=CC(=CC(=C1)N2C(=O)C=CC3=CN=C4C=CC(=CC4=C32)C5=CN=C(C=C5)N)C(F)(F)F [Torin2]; assay: as above
[1] = compound: CO[C@@H](C)Cn1c(=O)n(C)c2cnc3ccc(-c4cncc(C(C)(C)O)c4)cc3c21; assay: as above
AZD6738 = compound: C[C@@H]1COCCN1c1cc(C2([S@](C)(=N)=O)CC2)nc(-c2cc[nH]c3nccc2-3)n1 [AZD6738]; assay: as above
Ipatasertib/GDC0068 = compound: CC(C)NC[C@@H](C(=O)N1CCN(c2ncnc3c2[C@H](C)C[C@H]3O)CC1)c1ccc(Cl)cc1 [Ipatasertib/GDC0068]; assay: as above
[2] = compound: CC(=O)Nc1cccc(-n2c(=O)n(C3CC3)c(=O)c3c(Nc4ccc(I)cc4F)n(C)c(=O)c(C)c32)c1; assay: as above
Doxorubicin = compound: COc1cccc2c1C(=O)c1c(O)c3c(c(O)c1C2=O)C[C@@](O)(C(=O)CO)C[C@@H]3O[C@H]1C[C@H](N)[C@H](O)[C@H](C)O1 [Doxorubicin]; assay: as above
AZD1775 = compound: C=CCn1c(=O)c2cnc(Nc3ccc(N4CCN(C)CC4)cc3)nc2n1-c1cccc(C(C)(C)O)n1 [AZD1775]; assay: increase in dead-cell fraction, 72 h; higher = more death;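 note: breast cancer cell lines in 384-well plates, stained with Hoechst plus LIVE/DEAD far red dye and imaged, cells above an LDR intensity threshold counted dead, Hoechst-negative corpses included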
Pictilisib/GDC0941 = compound: CS(=O)(=O)N1CCN(Cc2cc3nc(-c4cccc5[nH]ncc45)nc(N4CCOCC4)c3s2)CC1 [Pictilisib/GDC0941]; assay: as above

Q: AU565 was tested. Which GR value (Everolimus; 0.001 µM) did it give?
A: 0.523 GR

Q: And the GR value (Everolimus; 0.003162 µM)?
A: 0.451 GR

Q: What about the GR value (Everolimus; 0.01 µM) of the same cell line?
A: 0.429 GR

Q: And the GR value (Everolimus; 0.03162 µM)?
A: 0.494 GR

Q: And the GR value (Everolimus; 0.1 µM)?
A: 0.396 GR

Q: And the GR value (Everolimus; 0.3162 µM)?
A: 0.509 GR

Q: What about the GR value (Everolimus; 1 µM) of the same cell line?
A: 0.408 GR

Q: What about the GR value (Everolimus; 3.162 µM) of the same cell line?
A: 0.454 GR

Q: What about the GR value (Everolimus; 10 µM) of the same cell line?
A: 0.398 GR

Q: And the GR value (AZD7762; 0.001 µM)?
A: 1.01 GR

Q: And the GR value (AZD7762; 0.003162 µM)?
A: 1.01 GR

Q: And the GR value (AZD7762; 0.01 µM)?
A: 1.08 GR

Q: And the GR value (AZD7762; 0.03162 µM)?
A: 1.03 GR

Q: What about the GR value (AZD7762; 0.1 µM) of the same cell line?
A: 0.976 GR

Q: What about the GR value (AZD7762; 0.3162 µM) of the same cell line?
A: 0.756 GR

Q: And the GR value (AZD7762; 1 µM)?
A: 0.41 GR

Q: What about the GR value (AZD7762; 3.162 µM) of the same cell line?
A: -0.179 GR

Q: And the GR value (AZD7762; 10 µM)?
A: -0.57 GR

Q: What about the GR value (BVD523; 0.001 µM) of the same cell line?
A: 1.17 GR

Q: And the GR value (BVD523; 0.003162 µM)?
A: 0.925 GR

Q: And the GR value (BVD523; 0.01 µM)?
A: 1.04 GR

Q: And the GR value (BVD523; 0.03162 µM)?
A: 0.941 GR

Q: And the GR value (BVD523; 0.1 µM)?
A: 1.06 GR

Q: And the GR value (BVD523; 0.3162 µM)?
A: 0.956 GR

Q: What about the GR value (BVD523; 1 µM) of the same cell line?
A: 0.985 GR

Q: What about the GR value (BVD523; 3.162 µM) of the same cell line?
A: 0.761 GR

Q: What about the GR value (BVD523; 10 µM) of the same cell line?
A: 0.525 GR

Q: And the GR value (Torin2; 0.0001 µM)?
A: 1.06 GR

Q: What about the GR value (Torin2; 0.0003162 µM) of the same cell line?
A: 1.02 GR

Q: What about the GR value (Torin2; 0.001 µM) of the same cell line?
A: 0.884 GR

Q: What about the GR value (Torin2; 0.003162 µM) of the same cell line?
A: 0.698 GR

Q: And the GR value (Torin2; 0.01 µM)?
A: 0.222 GR

Q: And the GR value (Torin2; 0.03162 µM)?
A: -0.0323 GR

Q: What about the GR value (Torin2; 0.1 µM) of the same cell line?
A: -0.152 GR

Q: What about the GR value (Torin2; 0.3162 µM) of the same cell line?
A: -0.239 GR

Q: And the GR value (Torin2; 1 µM)?
A: -0.395 GR

Q: What about the GR value ([1]; 0.001 µM) of the same cell line?
A: 0.518 GR

Q: And the GR value ([1]; 0.003162 µM)?
A: 0.487 GR

Q: And the GR value ([1]; 0.01 µM)?
A: 0.464 GR

Q: What about the GR value ([1]; 0.03162 µM) of the same cell line?
A: 0.273 GR

Q: What about the GR value ([1]; 0.1 µM) of the same cell line?
A: 0.269 GR

Q: What about the GR value ([1]; 0.3162 µM) of the same cell line?
A: 0.0911 GR

Q: What about the GR value ([1]; 1 µM) of the same cell line?
A: 0.0661 GR

Q: And the GR value ([1]; 3.162 µM)?
A: -0.0273 GR

Q: What about the GR value ([1]; 10 µM) of the same cell line?
A: -0.533 GR

Q: What about the GR value (AZD6738; 0.001 µM) of the same cell line?
A: 0.973 GR

Q: And the GR value (AZD6738; 0.003162 µM)?
A: 0.919 GR

Q: What about the GR value (AZD6738; 0.01 µM) of the same cell line?
A: 1.05 GR

Q: And the GR value (AZD6738; 0.03162 µM)?
A: 1.14 GR

Q: What about the GR value (AZD6738; 0.1 µM) of the same cell line?
A: 1 GR

Q: What about the GR value (AZD6738; 0.3162 µM) of the same cell line?
A: 0.982 GR

Q: And the GR value (AZD6738; 1 µM)?
A: 0.897 GR

Q: And the GR value (AZD6738; 3.162 µM)?
A: 1.08 GR

Q: And the GR value (AZD6738; 10 µM)?
A: 0.281 GR

Q: What about the GR value (Ipatasertib/GDC0068; 0.001 µM) of the same cell line?
A: 1.03 GR

Q: What about the GR value (Ipatasertib/GDC0068; 0.003162 µM) of the same cell line?
A: 1.08 GR

Q: And the GR value (Ipatasertib/GDC0068; 0.01 µM)?
A: 1.03 GR

Q: What about the GR value (Ipatasertib/GDC0068; 0.03162 µM) of the same cell line?
A: 0.996 GR

Q: And the GR value (Ipatasertib/GDC0068; 0.1 µM)?
A: 0.976 GR

Q: And the GR value (Ipatasertib/GDC0068; 0.3162 µM)?
A: 0.809 GR

Q: And the GR value (Ipatasertib/GDC0068; 1 µM)?
A: 0.772 GR

Q: What about the GR value (Ipatasertib/GDC0068; 3.162 µM) of the same cell line?
A: 0.55 GR

Q: What about the GR value (Ipatasertib/GDC0068; 10 µM) of the same cell line?
A: 0.289 GR

Q: And the GR value ([2]; 0.0001 µM)?
A: 1.05 GR

Q: What about the GR value ([2]; 0.0003162 µM) of the same cell line?
A: 0.96 GR

Q: And the GR value ([2]; 0.001 µM)?
A: 1.08 GR

Q: What about the GR value ([2]; 0.003162 µM) of the same cell line?
A: 1.05 GR

Q: And the GR value ([2]; 0.01 µM)?
A: 1.02 GR

Q: And the GR value ([2]; 0.03162 µM)?
A: 0.968 GR

Q: What about the GR value ([2]; 0.1 µM) of the same cell line?
A: 1.08 GR

Q: And the GR value ([2]; 0.3162 µM)?
A: 1.02 GR

Q: What about the GR value ([2]; 1 µM) of the same cell line?
A: 1.01 GR

Q: And the GR value (Doxorubicin; 0.0003162 µM)?
A: 1.09 GR

Q: What about the GR value (Doxorubicin; 0.001 µM) of the same cell line?
A: 1.03 GR

Q: What about the GR value (Doxorubicin; 0.003162 µM) of the same cell line?
A: 1.05 GR

Q: And the GR value (Doxorubicin; 0.01 µM)?
A: 1.01 GR

Q: What about the GR value (Doxorubicin; 0.03162 µM) of the same cell line?
A: 0.553 GR

Q: And the GR value (Doxorubicin; 0.1 µM)?
A: -0.11 GR

Q: And the GR value (Doxorubicin; 0.3162 µM)?
A: -0.234 GR

Q: What about the GR value (Doxorubicin; 1 µM) of the same cell line?
A: -0.385 GR

Q: What about the GR value (Doxorubicin; 3.162 µM) of the same cell line?
A: -0.452 GR

Q: What about the “increase in dead-cell fraction” value (AZD1775; 0.001 µM) of the same cell line?
A: 0.0224

Q: What about the “increase in dead-cell fraction” value (AZD1775; 0.003162 µM) of the same cell line?
A: 0.0098

Q: What about the “increase in dead-cell fraction” value (AZD1775; 0.01 µM) of the same cell line?
A: 0.0075

Q: And the “increase in dead-cell fraction” value (AZD1775; 0.03162 µM)?
A: 0.029

Q: And the “increase in dead-cell fraction” value (AZD1775; 0.1 µM)?
A: 0.0256

Q: And the “increase in dead-cell fraction” value (AZD1775; 0.3162 µM)?
A: 0.0481

Q: And the “increase in dead-cell fraction” value (AZD1775; 1 µM)?
A: 0.119

Q: And the “increase in dead-cell fraction” value (AZD1775; 3.162 µM)?
A: 0.184

Q: And the “increase in dead-cell fraction” value (AZD1775; 10 µM)?
A: 0.472

Q: And the “increase in dead-cell fraction” value (Pictilisib/GDC0941; 0.001 µM)?
A: 0.0052

Q: And the “increase in dead-cell fraction” value (Pictilisib/GDC0941; 0.003162 µM)?
A: 0.007

Q: What about the “increase in dead-cell fraction” value (Pictilisib/GDC0941; 0.01 µM) of the same cell line?
A: 0.0001

Q: And the “increase in dead-cell fraction” value (Pictilisib/GDC0941; 0.03162 µM)?
A: 0.0063

Q: And the “increase in dead-cell fraction” value (Pictilisib/GDC0941; 0.1 µM)?
A: 0.0196

Q: What about the “increase in dead-cell fraction” value (Pictilisib/GDC0941; 0.3162 µM) of the same cell line?
A: 0.0368

Q: And the “increase in dead-cell fraction” value (Pictilisib/GDC0941; 1 µM)?
A: 0.0866

Q: What about the “increase in dead-cell fraction” value (Pictilisib/GDC0941; 3.162 µM) of the same cell line?
A: 0.126

Q: And the “increase in dead-cell fraction” value (Pictilisib/GDC0941; 10 µM)?
A: 0.19
